Converted amounts (≈) assume the structure as drawn. Positions of bridges follow the written chain, without caps; N, C: chain ends. Residues, ends and D or L forms follow the SMILES beside them.
What was measured:
[1] = system: Acinetobacter baumannii BAA 747; type: cell-based; settings: BAA 747, 18 h
Procedure: (§1) The minimal inhibitory concentration (MIC) and minimal bactericidal concentration (MBC) values of the peptides were determined by established protocols to evaluate their antimicrobial activities ([Lin et al., 2021]). The MIC value was the lowest concentration of a peptide that inhibits visible bacterial growth after incubating 18 h (CLSI standard). Once the MIC values were determined, an aliquot from the bacterial culture exposed to the peptide at or above its MIC value was inoculated on a Mueller Hinton agar (MHA) and was incubated at 37 for 18 h (CLSI standard). The MBC value was the lowest concentration of a peptide that kills 99.9% of bacteria. Antimicrobial activities of synthetic peptides were assessed by determination of MIC and MBC values using eight kinds of bacteria and yeast: Gram-positive bacteria, Staphylococcus aureus ATCC 6538 (S. aureus 6538), Methicillin-resistant Staphylococcus aureus NCTC 12493 (MRSA 12493), and Enterococcus faecalis NCTC 12697 (E. faecium 12697); Gram-negative bacteria, Escherichia coli ATCC 8739 (E. coli 8739), Pseudomonas aeruginosa ATCC CRM 9027 (P. aeruginosa 9027), Klebsiella pneumoniae ATCC 43816 (K. pneumoniae 43816), and Acinetobacter baumannii BAA 747 (A. baumannii 747); and pathogenic yeast, Candida albicans ATCC 10231 (C. albicans 10231).

[2] = system: Candida albicans ATCC 10231; type: cell-based; settings: ATCC 10231, 18 h
Procedure: as §1

[3] = system: Escherichia coli ATCC 8739; type: cell-based; settings: ATCC 8739, 18 h
Procedure: as §1

[4] = system: Klebsiella pneumoniae ATCC 43816; type: cell-based; settings: ATCC 43816, 18 h
Procedure: as §1

[5] = system: Methicillin-resistant Staphylococcus aureus NCTC 12493; type: cell-based; settings: NCTC 12493, 18 h
Procedure: as §1

[6] = system: Pseudomonas aeruginosa ATCC CRM 9027; type: cell-based; settings: ATCC CRM 9027, 18 h
Procedure: as §1

[7] = system: Staphylococcus aureus ATCC 6538; type: cell-based; settings: ATCC 6538, 18 h
Procedure: as §1

[8] = system: E. faecium 12697; type: cell-based, Enterococcus faecalis NCTC 12697 (E. faecium 12697); settings: 12697, 18 h
Procedure: as §1

[9] = system: horse erythrocytes; type: cell-based
Procedure: The hemolytic activity of the peptides was assessed using horse erythrocytes. Horse erythrocytes were selected due to their similarity to human erythrocytes in membrane composition and widespread use in AMP studies for standardization. Following a previously established protocol ([Gao et al., 2016]). Peptide solutions with final concentrations ranging from 1 µM to 128 µM were incubated with 2% horse erythrocytes at 37°C for 2 h. Triton X-100 (1%) served as the positive control, while sterile PBS was used as the blank control. After that, the peptide-horse erythrocytes mixture was centrifuged at 930 g for 10 min, and the absorbance at 570 nm of the supernatant was measured. The hemolysis rate was calculated using the formal: Percentage Hemolysis = (Absorbance of sample − Absorbance of blank)/(Absorbance of Positive- Absorbance of Blank) × 100%

[10] = system: HaCaT cells; type: cell-based, human
Procedure: Lung cancer cell line, H838 (ATCC, United States), breast cancer cell line, MCF7 (ATCC, United States), and human immortalized keratinocytes, HaCat (Caltag Medsystems, United Kingdom), were used in this experiment to test the anti-proliferation activity of peptides brevine-1pl and its four analogues. H838 cells were maintained in RPMI-1640 medium (Gibco, United Kingdom), whereas MCF-7 and HaCaT cells were cultured in DMEM medium (Gibco, United Kingdom), supplemented with 10% (v/v) fetal bovine serum (FBS, Gibco, United Kingdom) and 1% (v/v) penicillin-streptomycin (PS, Gibco, United Kingdom). Cells were seeded in 96-well plates at densities of 8,000 cells/well for H838 and MCF-7 and 10,000 cells/well for HaCaT, followed by overnight incubation at 37°C under 5% CO2 to allow adherence. Following attachment, cells were exposed to peptide solutions at final concentrations ranging from 10^–4 M to 10^–9 M. After 22 h of treatment, 0.5 mg/ml MTT solution was added to each well and incubated at 37°C for 4 h. The medium was then aspirated, and 100 μl of DMSO was added to solubilize formazan crystals. Plates were agitated for 15 min in a shaking incubator, and absorbance was measured at 570 nm using a Synergy HT microplate reader. […] Cell viability (%) was calculated using the formula: Viability (%) = (ODtreated − ODblank)/(ODcontrol− ODblank) *100. […]

MIC [1] [µM]	MIC [2] [µM]	MIC [3] [µM]	MIC [4] [µM]	MIC [5] [µM]	MIC [6] [µM]	MIC [7] [µM]	MIC [8] [µM]	SMILES	MBC [1] [µM]	MBC [2] [µM]	MBC [3] [µM]	MBC [4] [µM]	MBC [5]	MBC [6] [µM]	MBC [7] [µM]	MBC [8] [µM]	Hemolytic activity at 16 μM (in words) [9]	Cytotoxicity toward normal HaCaT cells (in words) [10]
8 (≈ 21.3 µg/mL)	> 128	4 (≈ 10.7 µg/mL)	8 (≈ 21.3 µg/mL)	2 (≈ 5.33 µg/mL)	8 (≈ 21.3 µg/mL)	2 (≈ 5.33 µg/mL)	4 (≈ 10.7 µg/mL)	CC[C@H](C)[C@H](NC(=O)[C@H](CCCCN)NC(=O)[C@H](CCCCN)NC(=O)[C@H](CC(C)C)NC(=O)[C@@H](NC(=O)[C@H](CCCCN)NC(=O)[C@H](C)NC(=O)[C@H](C)NC(=O)[C@@H](NC(=O)CNC(=O)[C@H](C)NC(=O)[C@@H](NC(=O)[C@@H](NC(=O)[C@@H]1CCCN1C(=O)[C@H](Cc1ccccc1)NC(=O)[C@@H](N)Cc1ccccc1)[C@@H](C)CC)C(C)C)C(C)C)C(C)C)C(=O)N[C@@H](Cc1ccccc1)C(=O)N[C@H]1CSSC[C@@H](C(=O)O)NC(=O)[C@H](CCCNC(=N)N)NC(=O)[C@H](CCCNC(=N)N)NC(=O)[C@H](CO)NC(=O)[C@H]([C@@H](C)CC)NC(=O)[C@H]([C@@H](C)O)NC1=O [brevinin-1pl-2R] (H-FFPIVAGVAAKVLKKIFCTISRRC-OH; disulfide 18-24)	16 (≈ 42.7 µg/mL)	> 128	4 (≈ 10.7 µg/mL)	8 (≈ 21.3 µg/mL)	2 µM (≈ 5.33 µg/mL)	8 (≈ 21.3 µg/mL)	2 (≈ 5.33 µg/mL)	4 (≈ 10.7 µg/mL)	–	–
16 (≈ 44 µg/mL)	> 128	8 (≈ 22 µg/mL)	16 (≈ 44 µg/mL)	2 (≈ 5.5 µg/mL)	16 (≈ 44 µg/mL)	2 (≈ 5.5 µg/mL)	2 (≈ 5.5 µg/mL)	CC[C@H](C)[C@H](NC(=O)[C@H](CCCNC(=N)N)NC(=O)[C@H](CCCNC(=N)N)NC(=O)[C@H](CC(C)C)NC(=O)[C@@H](NC(=O)[C@H](CCCNC(=N)N)NC(=O)[C@H](C)NC(=O)[C@H](C)NC(=O)[C@@H](NC(=O)CNC(=O)[C@H](C)NC(=O)[C@@H](NC(=O)[C@@H](NC(=O)[C@@H]1CCCN1C(=O)[C@H](Cc1ccccc1)NC(=O)[C@@H](N)Cc1ccccc1)[C@@H](C)CC)C(C)C)C(C)C)C(C)C)C(=O)N[C@@H](Cc1ccccc1)C(=O)N[C@H]1CSSC[C@@H](C(=O)O)NC(=O)[C@H](CCCNC(=N)N)NC(=O)[C@H](CCCNC(=N)N)NC(=O)[C@H](CO)NC(=O)[C@H]([C@@H](C)CC)NC(=O)[C@H]([C@@H](C)O)NC1=O [brevinin-1pl-5R] (H-FFPIVAGVAARVLRRIFCTISRRC-OH; disulfide 18-24)	32 (≈ 88 µg/mL)	> 128	8 (≈ 22 µg/mL)	16 (≈ 44 µg/mL)	2 µM (≈ 5.5 µg/mL)	16 (≈ 44 µg/mL)	2 (≈ 5.5 µg/mL)	2 (≈ 5.5 µg/mL)	–	–
16 (≈ 42 µg/mL)	> 128	4 (≈ 10.5 µg/mL)	8 (≈ 21 µg/mL)	4 (≈ 10.5 µg/mL)	8 (≈ 21 µg/mL)	4 (≈ 10.5 µg/mL)	16 (≈ 42 µg/mL)	CC[C@H](C)[C@H](NC(=O)[C@H](CCCCN)NC(=O)[C@H](CCCCN)NC(=O)[C@H](CC(C)C)NC(=O)[C@@H](NC(=O)[C@H](CCCCN)NC(=O)[C@H](C)NC(=O)[C@H](C)NC(=O)[C@@H](NC(=O)CNC(=O)[C@H](C)NC(=O)[C@@H](NC(=O)[C@H](CCCCN)NC(=O)[C@@H]1CCCN1C(=O)[C@H](Cc1ccccc1)NC(=O)[C@@H](N)Cc1ccccc1)C(C)C)C(C)C)C(C)C)C(=O)N[C@@H](Cc1ccccc1)C(=O)N[C@H]1CSSC[C@@H](C(=O)O)NC(=O)[C@H](CCCCN)NC(=O)[C@H](CCCCN)NC(=O)[C@H](CO)NC(=O)[C@H]([C@@H](C)CC)NC(=O)[C@H]([C@@H](C)O)NC1=O [brevinin-1pl-6K] (H-FFPKVAGVAAKVLKKIFCTISKKC-OH; disulfide 18-24)	16 (≈ 42 µg/mL)	> 128	4 (≈ 10.5 µg/mL)	8 (≈ 21 µg/mL)	4 µM (≈ 10.5 µg/mL)	8 (≈ 21 µg/mL)	4 (≈ 10.5 µg/mL)	16 (≈ 42 µg/mL)	–	–
8 (≈ 20.9 µg/mL)	> 128	4 (≈ 10.4 µg/mL)	8 (≈ 20.9 µg/mL)	2 (≈ 5.22 µg/mL)	8 (≈ 20.9 µg/mL)	2 (≈ 5.22 µg/mL)	4 (≈ 10.4 µg/mL)	CC[C@H](C)[C@H](NC(=O)[C@H](CCCCN)NC(=O)[C@H](CCCCN)NC(=O)[C@H](CC(C)C)NC(=O)[C@@H](NC(=O)[C@H](CCCCN)NC(=O)[C@H](C)NC(=O)[C@H](C)NC(=O)[C@@H](NC(=O)CNC(=O)[C@H](C)NC(=O)[C@@H](NC(=O)[C@@H](NC(=O)[C@@H]1CCCN1C(=O)[C@H](Cc1ccccc1)NC(=O)[C@@H](N)Cc1ccccc1)[C@@H](C)CC)C(C)C)C(C)C)C(C)C)C(=O)N[C@@H](Cc1ccccc1)C(=O)N[C@H]1CSSC[C@@H](C(=O)O)NC(=O)[C@H](CCCCN)NC(=O)[C@H](CCCCN)NC(=O)[C@H](CO)NC(=O)[C@H]([C@@H](C)CC)NC(=O)[C@H]([C@@H](C)O)NC1=O [brevinin-1pl] (H-FFPIVAGVAAKVLKKIFCTISKKC-OH; disulfide 18-24)	16 (≈ 41.8 µg/mL)	> 128	4 (≈ 10.4 µg/mL)	8 (≈ 20.9 µg/mL)	2 µM (≈ 5.22 µg/mL)	16 (≈ 41.8 µg/mL)	2 (≈ 5.22 µg/mL)	4 (≈ 10.4 µg/mL)	–	–
> 128	64 (≈ 169 µg/mL)	32 (≈ 84.4 µg/mL)	32 (≈ 84.4 µg/mL)	–	64 (≈ 169 µg/mL)	8 (≈ 21.1 µg/mL)	16 (≈ 42.2 µg/mL)	CC[C@H](C)[C@H](NC(=O)[C@H](Cc1c[nH]cn1)NC(=O)[C@H](Cc1c[nH]cn1)NC(=O)[C@H](CC(C)C)NC(=O)[C@@H](NC(=O)[C@H](Cc1c[nH]cn1)NC(=O)[C@H](C)NC(=O)[C@H](C)NC(=O)[C@@H](NC(=O)CNC(=O)[C@H](C)NC(=O)[C@@H](NC(=O)[C@@H](NC(=O)[C@@H]1CCCN1C(=O)[C@H](Cc1ccccc1)NC(=O)[C@@H](N)Cc1ccccc1)[C@@H](C)CC)C(C)C)C(C)C)C(C)C)C(=O)N[C@@H](Cc1ccccc1)C(=O)N[C@H]1CSSC[C@@H](C(=O)O)NC(=O)[C@H](CCCCN)NC(=O)[C@H](CCCCN)NC(=O)[C@H](CO)NC(=O)[C@H]([C@@H](C)CC)NC(=O)[C@H]([C@@H](C)O)NC1=O [brevinin-1pl-3H] (H-FFPIVAGVAAHVLHHIFCTISKKC-OH; disulfide 18-24)	> 128	> 128	32 (≈ 84.4 µg/mL)	64 (≈ 169 µg/mL)	4/4 µM	64 (≈ 169 µg/mL)	8 (≈ 21.1 µg/mL)	32 (≈ 84.4 µg/mL)	low hemolytic activity	low cytotoxicity
